As usually defined, the IC50 is the concentration at which inhibition is half-maximal.

Molecules are shown by their SMILES.

Consider 19 molecules from US8486968B2, “Compounds” (Boehringer Ingelheim International GmbH, priority 2010, dated 2013).

Assay [1] addresses T1, mPGES-1 (Homo sapiens, UniProt O14684).
T1 sequence (O14684 1-152): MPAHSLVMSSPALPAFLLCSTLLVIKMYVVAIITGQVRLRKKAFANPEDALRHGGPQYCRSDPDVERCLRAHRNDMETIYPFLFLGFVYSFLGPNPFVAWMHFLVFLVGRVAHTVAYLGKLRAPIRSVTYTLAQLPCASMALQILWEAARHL
Kind of assay: A549 cell-based assay (PGE2 formation, IL-1β stimulated, 50% human serum). The arrangement: host or cells: A549 cells. Conditions: A549 cells, IL-1β 5 ng/ml, 20-24 h, Table B, read-out: mPGES-1 inhibitory effect, IC50, cell assay. The protocol:
Although the enzymatic assay is a high throughput assay the disadvantage is that it uses a recombinant protein which is not in its natural environment. Accordingly a cellular assay was established in which a cell line of human origin (A549) expressing the mPGES-1 protein was used. In addition in order to mimic the situation in humans in which compounds can be bound to plasma proteins 50% human serum is added in the assay. By having the combination of testing mPGES-1 in a cellular environment and the presence of 50% human serum this assay has a higher relevance to judge the therapeutic potential of a mPGES-inhibitor than the pure enzyme assay.
A549 cells (ATCC: CCL-185) are grown to about 90% confluence in F-12K Nutrient Mixture (Kaighn's Mod. Gibco) containing 10% FBS in a humified incubator at 37° C. and 5% CO2. Cells were detached using Trypsin-EDTA. A549 cells were seeded in a 384-well collagene plate at a density of 7000 cells/well (50 μl) in F-12 medium containing 1% Penicillin-Streptomycin and 50% human serum. The cells were allowed to attach for 3-4 h. After that the cells were incubated for 20-24 h in F-12k medium supplemented with 50% human serum, 1% Penicillin-Streptomycin and containing IL-1β at a final concentration of 5 ng/ml as well as 10 nM arachidonic acid in the presence of a vehicle or a test compound. The total volume is 100 μl.
Concentrations of PGE2 in the cell free medium (10 μl) were measured using a commercially available HTRF kit from Cisbio (as described above). The PGE2 formation in the absence of test compound was taken as 100%.
IC50 values were derived from at 6-8 point titrations using conventional software.

Assay [2] concerns the target T1, mPGES-1. Kind of assay: mPGES-1 enzyme assay (HTRF detection of PGE2). The format is biochemical. The arrangement: made in house; host or cells: Rosetta E. coli (membrane/microsome fraction). Conditions: recombinant human mPGES-1 microsomes, PGH2 2 μM, Table A; read-out: mPGES-1 inhibitory effect, IC50, enzyme assay. The protocol: Microsomes from Rosetta E. coli bacteria expressing recombinant human mPGES-1 can be derived as described below:
Inoculate 5 ml LB with Ampicilin (50 μg/ml) and Chloramphenicol (34 μg/ml) with bacteria from freeze culture. Incubate 8 h at 37° C. with 200 rpm. Thereafter, inoculate 500-1000 ml LB containing Amp and Chloro with the 5 ml on culture and grow to OD640 of 0.8-1.0. Chill the culture to +4° C. before induction. Induce the culture with IPTG at a final concentration of 400 μM. Express the protein at room temp 18-23° C. with 200 rpm shaking over night.
The following steps can be performed on the following day: • 1. Spin down the cells in 250 ml centrifuge flasks for 15 min at 7000 rpm (Beckmann Coulte Avanti J-E centrifuge) • 2. Dissolve the pellet from 250 ml culture in 12.5 ml homogenization buffer • 3. (15 mM Tris-HCL pH8, 1 mM EDTA pH8, […], 2.5 mM GSH, 1 Tablet Protease inhibitor per 50 ml buffer) • 4. Disintegrate the cells by sonication, 5×10 seconds at 48% amplitude of a 750 W sonifier • 5. Add 2.5 ml MgCl2 (100 mM) and DNase 12.5 μl (0.8 mg/ml) and incubate on ice for 30 min • 6. Spin down the bacteria debris and save the supernatant, 7000 rpm for 15 min • 7. Isolate the protein containing membranes in the supernatant by ultracentrifugation 120000×g for 2 hour at 4° C. (Sorvall T880 rotor). • 8. Discard the supernatant and dissolve the pellet in 20 mM Potassium phosphate buffer pH 7.4 (KH2PO4 and K2HPO4) buffer by sonication (5×10 s, 30% of a 50 W sonifier) and aliquot the enzyme and store aliquots at −80° C.
Before each experiment is performed an aliquot of the enzyme is thawed and it can then be dissolved in 0.1 M Potassium phosphate buffer pH7.4 (KH2PO4 and K2HPO4) buffer containing 2.5 mM GSH.
The aim of this assay is the determine the affinity of a test compound for the mPGES-1 enzyme.
47 μl of recombinant human mPGES-1 (˜0.5 μg protein/well) containing microsomal suspension in a buffer containing GSH, (2.5 mmol/L L-Glutathione reduced, dissolved in 0.1 mol/L Phosphat Buffer pH 7.4) is dispensed in a 384-well plate and thereafter 1 μl of the test compound(s) is/are added and incubated for 25 minutes at room temperature. The enzyme reaction is started by the addition of 2 μl PGH2 (final conc. 2 μM) dissolved in water-free Diglyme. After 60 seconds the reaction is terminated by addition of a stop solution containing FeCl2 (10 μL 0.074 mol/l FeCl2). The samples are diluted between 1:25 in PBS (Phosphate Buffered Saline). 10 μl of the diluted samples are transferred to 384-well low volume plate. In order to quantify the amount of PGE2 that has been formed, a homogenous time resolved fluorescent (HTRF) detecting of PGE2 has been performed using a commercially available kit from Cisbio according to the manufactures recommendation. This HTRF-based assay has been described in detail (see: Goedken et al., J Biomol Screen, 2008, 13(7), 619-625). Briefly, the diluted samples are mixed with 5 μl PGE2-d2 conjungate and 5 μl anti-PGE2 cryptate conjungate. After an incubation period of the plates over night, the fluorescence is measured by the use of an appropriate microplate reader.
The fluorescence of Europium cryptate (maxex=307 nm, maxem=620 nm) and d2-PGE2 (maxex=620 nm, maxem=665 nm) are measured.
The extent of the specific HTRF is measured as a ratio of the emission intensity at 665 nm vs. that at 620 nm at an excitation puls of 320 nm. The quantification plate contains also wells with different concentrations of PGE2 as calibration curve for the calculation of the PGE2 concentrations from the HTRF ratio values.
From all mPGES enzyme assay the background is subtracted and the IC50 is calculated over a nonlinear regression with conventional software.
A general note: In TR-FRET formats the signal depends on donor and acceptor labels being close together.

In the case of `Cn1c(Nc2cc(CNC(=O)C3(C(F)(F)F)CC3)ccc2Cl)nc2cc(C(=O)N[C@H]3CC[C@H](C(F)(F)F)CC3)c(N3CCC(C(F)(F)F)CC3)nc21` [Example 1, N-(trans-4-Trifluoromethyl-cyclohexyl)-2-{2-chloro-5-[(1-trifluoromethyl-cyclopropyl-carbonylamino)methyl]-phenylamino}-5-[4-trifluoromethyl-piperidinyl]-3-methyl-3H-imidazo[4,5-b]pyridine-6-carboxamide], the IC50 at mPGES-1 [1] is 7 nM; at mPGES-1 [2], 5 nM.
On the same counts, the results for `Cn1c(Nc2c(Cl)ccc(CNC(=O)C(C)(C)C)c2Cl)nc2cc(C(=O)N[C@H]3CC[C@H](C(F)(F)F)CC3)c(N3CCC(F)CC3)nc21` [Example 2, N-(trans-4-Trifluoromethyl-cyclohexyl)-2-{2,6-dichloro-3-[(2,2-dimethyl-propionylamino)-methyl]-phenylamino}-5-[-fluoro-piperidinyl]-3-methyl-3H-imidazo[4,5-b]pyridine-6-carboxamide] are 2 nM and 8 nM.
In the case of `CC(C)(C)C(=O)NCc1ccc(Cl)c(Nc2nc3cc(C(=O)N[C@H]4CC[C@H](C(F)(F)F)CC4)c(N4CCC(F)CC4)nc3[nH]2)c1Cl` [Example 3, N-(trans-4-Trifluoromethyl-cyclohexyl)-2-{2,6-dichloro-3-[(2,2-dimethyl-propionylamino)-methyl]-phenylamino}-5-[4-fluoro-piperidinyl]-3H-imidazo[4,5-b]pyridine-6-carboxamide], the concentration for half-maximal inhibition (IC50) is 2 nM on mPGES-1 [1] and 3 nM at mPGES-1 [2].
The corresponding values for `CN(CC(F)F)c1nc2[nH]c(Nc3c(Cl)ccc(CNC(=O)C(C)(C)C)c3Cl)nc2cc1C(=O)N[C@H]1CC[C@H](C(F)(F)F)CC1` [Example 4] are 3 nM and 1 nM.
With `CN(CC(F)F)c1nc2c(cc1C(=O)N[C@H]1CC[C@H](C(F)(F)F)CC1)nc(Nc1cc(CNC(=O)C3(C(F)(F)F)CC3)ccc1Cl)n2C` [Example 5], the concentration for half-maximal inhibition (IC50) came to 58 nM on mPGES-1 [1] and 9 nM at mPGES-1 [2].
As for `COCCN(C)c1nc2c(cc1C(=O)N[C@H]1CC[C@H](C(F)(F)F)CC1)nc(Nc1cc(CNC(=O)C3(C(F)(F)F)CC3)ccc1Cl)n2C` [Example 6], the IC50 on mPGES-1 [2] was determined as 9 nM.
With `CC(C)(C)C(=O)NCc1ccc(Cl)c(Nc2nc3cc(C(=O)N[C@H]4CC[C@H](C(F)(F)F)CC4)c(N4CC[C@@H](F)C4)nc3[nH]2)c1Cl` [Example 7], the half-maximal inhibitory concentration (IC50) on mPGES-1 [1] came out at 11 nM; at mPGES-1 [2], 4 nM.
On the same counts, the results for `CC(C)(C)C(=O)NCc1ccc(Cl)c(Nc2nc3cc(C(=O)N[C@H]4CC[C@H](C(F)(F)F)CC4)c(N4CC[C@H](F)C4)nc3[nH]2)c1Cl` [Example 8] are 11 nM and 2 nM.
In the case of `CC(C)(C)C(=O)NCc1ccc(Cl)c(Nc2nc3cc(C(=O)N[C@H]4CC[C@H](C(F)(F)F)CC4)c(N4CCC(F)(F)C4)nc3[nH]2)c1Cl` [Example 9], the concentration for half-maximal inhibition (IC50) on mPGES-1 [1] worked out at 6 nM; on mPGES-1 [2], 2 nM.
With `CN(CC(F)F)c1nc2[nH]c(Nc3c(Cl)ccc(CNC(=O)C(C)(C)C)c3Cl)nc2cc1C(=O)NC1CCC(F)(F)CC1` [Example 10], the IC50 on mPGES-1 [1] is 8 nM; on mPGES-1 [2], 1 nM.
Take `CN(CC(F)F)c1nc2[nH]c(Nc3c(Cl)ccc(CNC(=O)C(C)(C)C)c3Cl)nc2cc1C(=O)NCC(F)F` [Example 11]: the IC50 on mPGES-1 [1] came out at 47 nM; on mPGES-1 [2], 10 nM.
`CC(C)(C)C(=O)NCc1ccc(Cl)c(Nc2nc3cc(C(=O)N[C@H]4CC[C@H](C(F)(F)F)CC4)c(N4CC5CC5C4)nc3[nH]2)c1Cl` (stereo partly drawn) [Example 12]: the half-inhibitory concentration (IC50) on mPGES-1 [1] and at mPGES-1 [2] was 2 nM throughout.
Consider `CC(C)(C)OC(=O)NCc1cc(F)c(Cl)c(Nc2nc3cc(C(=O)N[C@H]4CC[C@H](C(F)(F)F)CC4)c(N4CCC(F)CC4)nc3[nH]2)c1Cl` [Example 14, N-(trans-4-Trifluoromethyl-cyclohexyl)-2-{2,6-dichloro-5-fluoro-3-[(tert.butoxycarbonylamino)-methyl]-phenylamino}-5-[4-fluoro-piperidinyl]-3H-imidazo[4,5-b]pyridine-6-carboxamide], for which the IC50 on mPGES-1 [1] worked out at 86 nM; at mPGES-1 [2], 35 nM.
The corresponding values for `CC(C)(C)C(=O)NCc1cc(F)c(Cl)c(Nc2nc3cc(C(=O)N[C@H]4CC[C@H](C(F)(F)F)CC4)c(N4CCC(F)CC4)nc3[nH]2)c1Cl` [Example 15, N-(trans-4-Trifluoromethyl-cyclohexyl)-2-{2,6-dichloro-5-fluoro-3-[(2,2-dimethyl-propionylamino)-methyl]-phenylamino}-5-[4-fluoro-piperidinyl]-3H-imidazo[4,5-b]pyridine-6-carboxamide] are 10 nM and 2 nM.
On to `CN(Cc1nccn1C)c1nc2c(cc1C(=O)N[C@H]1CC[C@H](C(F)(F)F)CC1)nc(Nc1c(Cl)ccc(CNC(=O)C(C)(C)C)c1Cl)n2C` [Example 16], for which the IC50 on mPGES-1 [1] and at mPGES-1 [2] was 3 nM in each case.
On to `Cn1c(Nc2c(Cl)ccc(CNC(=O)C(C)(C)C)c2Cl)nc2cc(C(=O)N[C@H]3CC[C@H](C(F)(F)F)CC3)c(N3CC[C@@H](F)C3)nc21` [Example 18], for which the IC50 at mPGES-1 [1] and at mPGES-1 [2] was 2 nM throughout.
As for `Cn1c(Nc2c(Cl)ccc(CNC(=O)C(C)(C)C(F)(F)F)c2Cl)nc2cc(C(=O)N[C@H]3CC[C@H](C(F)(F)F)CC3)c(N3CC[C@@H](F)C3)nc21` [Example 19], the concentration for half-maximal inhibition (IC50) at mPGES-1 [1] was 6 nM; at mPGES-1 [2], 4 nM.
For `CN(c1nc2c(cc1C(=O)N[C@H]1CC[C@H](C(F)(F)F)CC1)nc(Nc1c(Cl)ccc(CNC(=O)C(C)(C)C)c1Cl)n2C)C1COC1` [Example 20], the IC50 came to 3 nM on mPGES-1 [1] and 2 nM at mPGES-1 [2].
On to `Cn1c(Nc2c(Cl)ccc(CNC(=O)C(C)(C)C)c2Cl)nc2cc(C(=O)NC(Cc3ccccc3)C(F)(F)F)c(N3CCC(C(F)(F)F)CC3)nc21` (stereo not drawn) [Example 39], for which, on mPGES-1 [1], the IC50 is 25 nM.
